Measurements from ChEMBL document CHEMBL1268834, “Expansion of SAR studies on triaryl bis sulfone cannabinoid CB2 receptor ligands” (Bioorg Med Chem Lett, 2010).

How the values were obtained:
Cannabinoid receptor 2 = Cannabinoid receptor 2 (Homo sapiens, UniProt P34972); test: Inhibition of beta-arrestin binding to recombinant cannabinoid CB2 receptor
[1] = Selectivity ratio of Ki for recombinant cannabinoid CB1 receptor to Ki for recombinant cannabinoid CB2 receptor
[2] = AUC in rat at 10 mg/kg; format: ADME, organism-based; set-up: dose 10 mg/kg; conditions: plasma

Sequence of Cannabinoid receptor 2 (P34972 whole entry): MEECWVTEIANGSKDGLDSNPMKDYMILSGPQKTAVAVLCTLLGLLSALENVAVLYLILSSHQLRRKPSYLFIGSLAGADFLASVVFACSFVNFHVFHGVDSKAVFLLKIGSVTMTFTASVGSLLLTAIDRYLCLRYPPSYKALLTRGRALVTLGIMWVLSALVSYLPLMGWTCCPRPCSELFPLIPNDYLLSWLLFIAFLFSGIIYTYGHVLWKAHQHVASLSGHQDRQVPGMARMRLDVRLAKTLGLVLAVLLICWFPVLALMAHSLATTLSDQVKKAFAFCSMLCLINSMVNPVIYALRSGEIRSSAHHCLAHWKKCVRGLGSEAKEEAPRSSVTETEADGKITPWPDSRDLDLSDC

O=S(=O)(c1cc2ccccc2n1S(=O)(=O)c1ccccc1F)N1C[C@@H]2[C@@H](CNS(=O)(=O)C(F)(F)F)[C@@H]2C1
Ki (Cannabinoid receptor 2): 9 nM
Ratio Ki [1]: 279

CCCC1(CNS(=O)(=O)C(F)(F)F)CCN(S(=O)(=O)c2cc3ccccc3n2S(=O)(=O)c2ccccn2)CC1
Ki (Cannabinoid receptor 2): 1.6 nM
AUC [2]: 17.6 µM·h
Ratio Ki [1]: 26400

C[C@@H](NS(=O)(=O)C(F)(F)F)c1ccc(S(=O)(=O)c2ccoc2S(=O)(=O)c2ccccc2F)cc1
Ki (Cannabinoid receptor 2): 4.4 nM
Ratio Ki [1]: 2690

CC(NS(=O)(=O)C(F)(F)F)C1CCN(S(=O)(=O)c2cc3ccccc3n2S(=O)(=O)c2ccccc2F)CC1 (configuration not stated)
Ki (Cannabinoid receptor 2): 0.4 nM
Ratio Ki [1]: 2080

O=S(=O)(c1cc2ccccc2n1S(=O)(=O)c1ccccc1F)N1CCCC(CCNS(=O)(=O)C(F)(F)F)C1 (configuration not stated)
Ki (Cannabinoid receptor 2): 258 nM
Ratio Ki [1]: 3

CC1(CNS(=O)(=O)C(F)(F)F)CCN(S(=O)(=O)c2cc3ccccc3n2S(=O)(=O)c2ccccc2F)CC1
Ki (Cannabinoid receptor 2): 0.35 nM
Ratio Ki [1]: 6720

CCCC1(CNS(=O)(=O)C(F)(F)F)CCN(S(=O)(=O)c2cc3ccccc3n2S(=O)(=O)c2ccccc2F)CC1
Ki (Cannabinoid receptor 2): 1.8 nM
Ratio Ki [1]: 2520

CC(C)(NS(=O)(=O)C(F)(F)F)C1CCN(S(=O)(=O)c2cc3ccccc3n2S(=O)(=O)c2ccccc2F)CC1
Ki (Cannabinoid receptor 2): 171 nM
Ratio Ki [1]: 171

C[C@@H]1CN(S(=O)(=O)c2cc3ccccc3n2S(=O)(=O)c2ccccc2F)CC[C@H]1CNS(=O)(=O)C(F)(F)F
Ki (Cannabinoid receptor 2): 0.5 nM
Ratio Ki [1]: 2260

O=S(=O)(c1cc2ccccc2n1S(=O)(=O)c1ccccn1)N1CCC2(CC1)C[C@@H]2NS(=O)(=O)C(F)(F)F
Ki (Cannabinoid receptor 2): 0.4 nM
AUC [2]: 4.56 µM·h
Ratio Ki [1]: 3500

O=S(=O)(c1cc2ccccc2n1S(=O)(=O)c1ccccc1F)N1CCC2(CC1)C[C@@H]2NS(=O)(=O)C(F)(F)F
Ratio Ki [1]: 413

O=S(=O)(c1ccccc1F)c1ncccc1S(=O)(=O)N1CCC(CNS(=O)(=O)C(F)(F)F)CC1
Ki (Cannabinoid receptor 2): 790 nM
Ratio Ki [1]: 126

CCC1(CNS(=O)(=O)C(F)(F)F)CCN(S(=O)(=O)c2cc3cc(F)ccc3n2S(=O)(=O)c2ccccc2F)CC1
Ki (Cannabinoid receptor 2): 0.4 nM
AUC [2]: 3.77 µM·h
Ratio Ki [1]: 2800

CN(C)c1ncccc1S(=O)(=O)n1c(S(=O)(=O)N2CCC(CNS(=O)(=O)C(F)(F)F)CC2)cc2ccccc21
Ki (Cannabinoid receptor 2): 23 nM
Ratio Ki [1]: 126

O=S(=O)(c1cc2ccccc2n1S(=O)(=O)c1ccccc1F)N1CC(CCNS(=O)(=O)C(F)(F)F)C1
Ki (Cannabinoid receptor 2): 249 nM
Ratio Ki [1]: 11

CC[C@]1(CNS(=O)(=O)C(F)(F)F)CCN(S(=O)(=O)c2cc3ccccc3n2S(=O)(=O)c2ccccc2F)C[C@H]1C
Ki (Cannabinoid receptor 2): 3.1 nM
Ratio Ki [1]: 630

COC1(CNS(=O)(=O)C(F)(F)F)CCN(S(=O)(=O)c2cc3cccnc3n2S(=O)(=O)c2ccccc2F)CC1
Ki (Cannabinoid receptor 2): 2.5 nM
AUC [2]: 3.19 µM·h
Ratio Ki [1]: 3200

O=S(=O)(c1cc2ccccc2n1S(=O)(=O)c1ccccc1F)N1CCC2(CC1)CN(S(=O)(=O)C(F)(F)F)C2
Ki (Cannabinoid receptor 2): 8430 nM
Ratio Ki [1]: 12

COc1ccc2c(c1)cc(S(=O)(=O)N1CCC(CNS(=O)(=O)C(F)(F)F)CC1)n2S(=O)(=O)c1ccccc1F
Ki (Cannabinoid receptor 2): 0.8 nM
Ratio Ki [1]: 5160

C[C@@H](NS(=O)(=O)C(F)(F)F)c1ccc(S(=O)(=O)c2cc3ccccc3n2S(=O)(=O)c2ccccc2F)cc1
Ki (Cannabinoid receptor 2): 7.5 nM
Ratio Ki [1]: 1340

O=S(=O)(c1cc2ccccc2n1S(=O)(=O)c1ccccn1)N1CCC(CNS(=O)(=O)C(F)(F)F)CC1
Ki (Cannabinoid receptor 2): 0.9 nM
Ratio Ki [1]: 9180

O=S(=O)(c1cc2ccccc2n1S(=O)(=O)c1cccnc1)N1CCC(CNS(=O)(=O)C(F)(F)F)CC1
Ki (Cannabinoid receptor 2): 41 nM
Ratio Ki [1]: 139

O=S(=O)(c1cc2ccccc2n1S(=O)(=O)c1ccccc1F)N1CCC2(CC(NS(=O)(=O)C(F)(F)F)C2)C1 (configuration not stated)
Ki (Cannabinoid receptor 2): 452 nM
Ratio Ki [1]: 117

C[C@@H]1CN(S(=O)(=O)c2cc3ccccc3n2S(=O)(=O)c2ccccc2F)CC[C@@H]1CNS(=O)(=O)C(F)(F)F
Ki (Cannabinoid receptor 2): 1.5 nM
Ratio Ki [1]: 6670

O=S(=O)(c1cc2ccccc2n1S(=O)(=O)c1ccccc1F)N1CCC(CNS(=O)(=O)C(F)(F)F)CC1
Ki (Cannabinoid receptor 2): 0.38 nM
Ratio Ki [1]: 9250

O=S(=O)(c1ccccc1F)c1occc1S(=O)(=O)N1CCC(CNS(=O)(=O)C(F)(F)F)CC1
Ki (Cannabinoid receptor 2): 1.4 nM
Ratio Ki [1]: 4520

Cn1c(S(=O)(=O)c2ccccc2F)c(S(=O)(=O)N2CCC(CNS(=O)(=O)C(F)(F)F)CC2)c2ccccc21
Ki (Cannabinoid receptor 2): 70 nM
Ratio Ki [1]: 364

CC1(C)CN(S(=O)(=O)c2cc3ccccc3n2S(=O)(=O)c2ccccc2F)CCC1CNS(=O)(=O)C(F)(F)F (configuration not stated)
Ki (Cannabinoid receptor 2): 4.2 nM
Ratio Ki [1]: 245

O=S(=O)(c1cc2ccccc2n1S(=O)(=O)c1ccccc1F)N1CCC(O)(CNS(=O)(=O)C(F)(F)F)CC1
Ki (Cannabinoid receptor 2): 0.2 nM
Ratio Ki [1]: 4380

CC(C)C1(CNS(=O)(=O)C(F)(F)F)CCCN(S(=O)(=O)c2cc3ccccc3n2S(=O)(=O)c2ccccc2F)C1 (configuration not stated)
Ki (Cannabinoid receptor 2): 78 nM
Ratio Ki [1]: 24

C[C@@H](NS(=O)(=O)C(F)(F)F)c1ccc(S(=O)(=O)n2cccc2S(=O)(=O)c2ccccc2F)cc1
Ki (Cannabinoid receptor 2): 8.4 nM
Ratio Ki [1]: 962

C[C@H]1C[C@H](CNS(=O)(=O)C(F)(F)F)CCN1S(=O)(=O)c1cc2ccccc2n1S(=O)(=O)c1ccccc1F
Ki (Cannabinoid receptor 2): 16 nM
Ratio Ki [1]: 334
